Laboratory results as given in patent US20240166660A1, “KRAS G12C INHIBITORS” (BeiGene Switzerland GmbH, priority 2021, published 2024).

Molecular target: KRAS (aa 1-169) G12C, C51S, C80L, C118S (Homo sapiens (Human), UniProt P01116, C118S/C51S/C80L/G12C)
Test: Biochemical functional assay: SOS1-mediated nucleotide exchange of GDP-loaded KRAS G12C, binding to GST-cRaf RBD, FRET readout
Conditions: 3 hrs pre-incubation with compound at 24° C., SOS1, GTPyS
How it was run: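 GDP-loaded His-tagged KRAS construct preincubated with compound 3 h at 24° C in 25 mM HEPES pH7.5, 10 mM MgCl2, 0.01% Triton X-100; SOS1 (aa 564-1049), GTPγS and GST-cRaf RBD added for 3 h, then anti-His Tb cryptate/anti-GST XL665 for 3 h. HTRF 665/620 ratio; IC50 by four-parameter logistic fit.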

[1] = inhibition of nucleotide exchange

Sequence of KRAS (aa 1-169) G12C, C51S, C80L, C118S (P01116 other isoform, or with tags, fused parts or gaps G12C/C51S/C80L/C118S): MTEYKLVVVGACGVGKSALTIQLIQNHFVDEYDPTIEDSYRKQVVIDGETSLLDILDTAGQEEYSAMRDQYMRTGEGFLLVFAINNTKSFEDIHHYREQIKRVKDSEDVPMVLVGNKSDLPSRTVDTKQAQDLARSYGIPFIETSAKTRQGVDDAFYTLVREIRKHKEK

C=C(F)C(=O)N1CCN(c2nc(OCC3C[C@@H](OC)CN3C)nc3cc(-c4cccc5cccc(Cl)c45)c4c(c23)OCCC4)C[C@@H]1CC#N (mixture of isomers) [Compound B93, 2-((2S)-4-(5-(8-chloronaphthalen-1-yl)-8-(((4R)-4-methoxy-1-methylpyrrolidin-2-yl)methoxy)-3,4-dihydro-2H-pyrano[2,3-f]quinazolin-10-yl)-1-(2-fluoroacryloyl)piperazin-2-yl)acetonitrile]
IC50 [1]: 0.011 µM

C=C(F)C(=O)N1CCN(c2nc(OC[C@@H]3CCCN3C)nc3cc(-c4c(Cl)c(C)cc5[nH]ncc45)c4c(c23)OCC4)C[C@@H]1CC#N [Compound B30, 2-((2S)-4-(4-(5-chloro-6-methyl-1H-indazol-4-yl)-7-(((S)-1-methylpyrrolidin-2-yl)methoxy)-2,3-dihydrofuro[2,3-f]quinazolin-9-yl)-1-(2-fluoroacryloyl)piperazin-2-yl)acetonitrile]
IC50 [1]: 0.0096 µM

C=CC(=O)N1CCN(c2nc(OC3CCCC3N(C)C)nc3cc(-c4cccc5cccc(Cl)c45)c4c(c23)OCCC4)C[C@@H]1CC#N (stereo partly drawn) [Compound B48, 2-((2S)-1-acryloyl-4-(5-(8-chloronaphthalen-1-yl)-8-((2-(dimethylamino)cyclopentyl)oxy)-3,4-dihydro-2H-pyrano[2,3-f]quinazolin-10-yl)piperazin-2-yl)acetonitrile]
IC50 [1]: 0.014 µM

C=C(F)C(=O)N1CCN(c2nc(OC[C@@H]3CCCN3C)nc3cc(-c4c(O)cccc4F)c4ccoc4c23)C[C@@H]1CC#N [Compound B39, 2-((2S)-4-(4-(2-fluoro-6-hydroxyphenyl)-7-(((S)-1-methylpyrrolidin-2-yl)methoxy)furo[2,3-f]quinazolin-9-yl)-1-(2-fluoroacryloyl)piperazin-2-yl)acetonitrile]
IC50 [1]: 1.04 µM

C=CC(=O)N1CCN(c2nc(N3CC(N(C)C)C3)nc3cc(-c4c(Cl)c(C)cc5[nH]ncc45)c4c(c23)OCCC4)C[C@@H]1CC#N [Compound B4, 2-((2S)-1-acryloyl-4-(5-(5-chloro-6-methyl-1H-indazol-4-yl)-8-(3-(dimethylamino)azetidin-1-yl)-3,4-dihydro-2H-pyrano[2,3-f]quinazolin-10-yl)piperazin-2-yl)acetonitrile]
IC50 [1]: 0.0047 µM

C=CC(=O)N1CC2(CCN(c3nc(OC[C@@H]4CCCN4C)nc4cc(-c5cccc6cccc(Cl)c56)c5ccoc5c34)CC2)C1 [Compound B51, (S)-1-(7-(4-(8-chloronaphthalen-1-yl)-7-((1-methylpyrrolidin-2-yl)methoxy)furo[2,3-f]quinazolin-9-yl)-2,7-diazaspiro[3.5]nonan-2-yl)prop-2-en-1-one]
IC50 [1]: 1.01 µM

C=CC(=O)N1CCN(c2nc(N3CC(N(C)C)C3)nc3cc(-c4ccccc4C#N)c4c(c23)OCCC4)CC1 [Compound B19, 2-(10-(4-acryloylpiperazin-1-yl)-8-(3-(dimethylamino)azetidin-1-yl)-3,4-dihydro-2H-pyrano[2,3-f]quinazolin-5-yl)benzonitrile]
IC50 (bound in uM): > 10 µM

C=CC(=O)N1CCN(c2ncnc3cc(-c4cccc5ccccc45)c4c(c23)OCCC4)C[C@@H]1CC#N [Compound A7, (S)-2-(1-acryloyl-4-(5-(naphthalen-1-yl)-3,4-dihydro-2H-pyrano[2,3-f]quinazolin-10-yl)piperazin-2-yl)acetonitrile]
IC50 [1]: 0.0431 µM

C=CC(=O)N1CCN(c2ncnc3cc(-c4cc(F)cc5[nH]ncc45)c4c(c23)OCCC4)C[C@@H]1CC#N [Compound A16, (S)-2-(1-acryloyl-4-(5-(6-fluoro-1H-indazol-4-yl)-3,4-dihydro-2H-pyrano[2,3-f]quinazolin-10-yl)piperazin-2-yl)acetonitrile]
IC50 [1]: 0.0898 µM

C=C(F)C(=O)N1CCN(c2nc(OC[C@@H]3CCCN3C)nc3cc(-c4cccc(C(F)(F)F)c4)c4ccoc4c23)C[C@@H]1CC#N [Compound B87, 2-((S)-1-(2-fluoroacryloyl)-4-(7-(((S)-1-methylpyrrolidin-2-yl)methoxy)-4-(3-(trifluoromethyl)phenyl)furo[2,3-f]quinazolin-9-yl)piperazin-2-yl)acetonitrile]
IC50 [1]: 1.52 µM

C=CC(=O)N1CCN(c2nc(N3CC(N(C)C)C3)nc3cc(-c4c(O)cccc4F)c4c(c23)OCCC4)CC1 [Compound B7, 1-(4-(8-(3-(dimethylamino)azetidin-1-yl)-5-(2-fluoro-6-hydroxyphenyl)-3,4-dihydro-2H-pyrano[2,3-f]quinazolin-10-yl)piperazin-1-yl)prop-2-en-1-one]
IC50 [1]: 1.09 µM

C=C(F)C(=O)N1CCN(c2nc(OC[C@@H]3CCCN3C)nc3cc(-c4ccc(C(F)(F)F)cc4)c4ccoc4c23)C[C@@H]1CC#N [Compound B89, 2-((S)-1-(2-fluoroacryloyl)-4-(7-(((S)-1-methylpyrrolidin-2-yl)methoxy)-4-(4-(trifluoromethyl)phenyl)furo[2,3-f]quinazolin-9-yl)piperazin-2-yl)acetonitrile]
IC50 [1]: 0.691 µM

C=C(F)C(=O)N1CCN(c2nc(OC[C@@H]3CCCN3C)nc3cc(-c4ccc(F)c5ccccc45)c4c(c23)OCCC4)C[C@@H]1CC#N [Compound B99, 2-((S)-1-(2-fluoroacryloyl)-4-(5-(4-fluoronaphthalen-1-yl)-8-(((S)-1-methylpyrrolidin-2-yl)methoxy)-3,4-dihydro-2H-pyrano[2,3-f]quinazolin-10-yl)piperazin-2-yl)acetonitrile]
IC50 [1]: 0.152 µM

C=CC(=O)N1CCN(c2ncnc3cc(-c4c(C)cccc4C)c4c(c23)OCCC4)C[C@@H]1CC#N [Compound A24, (S)-2-(1-acryloyl-4-(5-(2,6-dimethylphenyl)-3,4-dihydro-2H-pyrano[2,3-f]quinazolin-10-yl)piperazin-2-yl)acetonitrile]
IC50 [1]: 0.262 µM

C=C(F)C(=O)N1CCN(c2nc(OC[C@@H]3CCCN3C)nc3cc(-c4cccc(Cl)c4C(F)(F)F)c4c(c23)OCCC4)C[C@@H]1CC#N [Compound B103, 2-((S)-4-(5-(3-chloro-2-(trifluoromethyl)phenyl)-8-(((S)-1-methylpyrrolidin-2-yl)methoxy)-3,4-dihydro-2H-pyrano[2,3-f]quinazolin-10-yl)-1-(2-fluoroacryloyl)piperazin-2-yl)acetonitrile]
IC50 [1]: 0.00695 µM

C=C(F)C(=O)N1CCN(c2nc(OC[C@@H]3C[C@H](F)CN3C)nc3cc(-c4cccc5cccc(Cl)c45)c4c(c23)OCCC4)C[C@@H]1CC#N [Compound B54, 2-((S)-4-(5-(8-chloronaphthalen-1-yl)-8-(((2S,4S)-4-fluoro-1-methylpyrrolidin-2-yl)methoxy)-3,4-dihydro-2H-pyrano[2,3-f]quinazolin-10-yl)-1-(2-fluoroacryloyl)piperazin-2-yl)acetonitrile]
IC50 [1]: 0.04 µM

C=CC(=O)N1CCN(c2ncnc3cc(-c4c(O)cccc4F)c4c(c23)OCCC4)C[C@@H]1CC#N [Compound A4, 2-((2S)-1-acryloyl-4-(5-(2-fluoro-6-hydroxyphenyl)-3,4-dihydro-2H-pyrano[2,3-f]quinazolin-10-yl)piperazin-2-yl)acetonitrile]
IC50 [1]: 0.0896 µM

C=CC(=O)N1CCN(c2nc(OCCN(C)C)nc3cc(-c4c(Cl)c(C)cc5[nH]ncc45)c4c(c23)OCCC4)C[C@@H]1CC#N [Compound B5, 2-((2S)-1-acryloyl-4-(5-(5-chloro-6-methyl-1H-indazol-4-yl)-8-(2-(dimethylamino)ethoxy)-3,4-dihydro-2H-pyrano[2,3-f]quinazolin-10-yl)piperazin-2-yl)acetonitrile]
IC50 [1]: 0.0079 µM

C=CC(=O)N1CCN(c2ncnc3cc(-c4cc(C(F)(F)F)cc5[nH]ncc45)c4c(c23)OCCC4)C[C@@H]1CC#N [Compound A18, (S)-2-(1-acryloyl-4-(5-(6-(trifluoromethyl)-1H-indazol-4-yl)-3,4-dihydro-2H-pyrano[2,3-f]quinazolin-10-yl)piperazin-2-yl)acetonitrile]
IC50 [1]: 0.0378 µM

C=CC(=O)N1CCN(c2nc(OC[C@@H]3CCCN3C)nc3cc(-c4ccccc4C4CC4)c4ccoc4c23)CC1 [Compound B58, (S)-1-(4-(4-(2-cyclopropylphenyl)-7-((1-methylpyrrolidin-2-yl)methoxy)furo[2,3-f]quinazolin-9-yl)piperazin-1-yl)prop-2-en-1-one]
IC50 [1]: 0.958 µM

C=C(F)C(=O)N1CCN(c2nc(N3CC(CC#N)(N(C)C)C3)nc3cc(-c4cccc5cccc(Cl)c45)c4c(c23)OCCC4)C[C@@H]1CC#N (single isomer, unassigned) [Compound B92]
IC50 [1]: 0.381 µM

C=CC(=O)N1CCN(c2nc(N3CC(N(C)C)C3)nc3cc(-c4ccccc4Cl)c4c(c23)OCCC4)CC1 [Compound B21, 1-(4-(5-(2-chlorophenyl)-8-(3-(dimethylamino)azetidin-1-yl)-3,4-dihydro-2H-pyrano[2,3-f]quinazolin-10-yl)piperazin-1-yl)prop-2-en-1-one]
IC50 (bound in uM): > 10 µM

C=CC(=O)N1CCN(c2nc(N3CC(N(C)C)C3)nc3cc(-c4ccccc4F)c4c(c23)OCCC4)CC1 [Compound B16, 1-(4-(8-(3-(dimethylamino)azetidin-1-yl)-5-(2-fluorophenyl)-3,4-dihydro-2H-pyrano[2,3-f]quinazolin-10-yl)piperazin-1-yl)prop-2-en-1-one]
IC50 (bound in uM): > 10 µM

C=C(F)C(=O)N1CCN(c2nc(OC[C@H]3CCCN3C)nc3cc(-c4cccc5cccc(Cl)c45)c4c(c23)OCCC4)C[C@@H]1CC#N (single isomer, unassigned) [Compound B105]
IC50 [1]: 0.29 µM

C=C(F)C(=O)N1CCN(c2nc(OC[C@@H]3CCCN3C)nc3cc(-c4ccc(F)c5sc(N)nc45)c4c(c23)OCCC4)C[C@@H]1CC#N [Compound B29, 2-((S)-4-(5-(2-amino-7-fluorobenzo[d]thiazol-4-yl)-8-(((S)-1-methylpyrrolidin-2-yl)methoxy)-3,4-dihydro-2H-pyrano[2,3-f]quinazolin-10-yl)-1-(2-fluoroacryloyl)piperazin-2-yl)acetonitrile]
IC50 [1]: 0.00451 µM
